Experimental data: patent US20210078988A1, “MODULATORS OF INDOLEAMINE 2,3-DIOXYGENASE” (GLAXOSMITHKLINE INTELLECTUAL PROPERTY DEVELOPMENT LIMITED, priority 2017, published 2021)

Molecular target: T1, indoleamine 2, 3-dioxygenase (IDO1) (Homo sapiens, UniProt P14902)
T1 construct: human peripheral blood mononuclear cells (PBMC) (PB003F; host or cells: human PBMC stimulated with IFN-gamma and LPS
Test: PBMC IDO1 assay (kynurenine detection via mass spectrometry)
Type: cell-based
Conditions: human PBMC stimulated with IFN-γ and LPS, 2 days, kynurenine by mass spectrometry; read-out: IDO1 PBMC pIC50 (converted)
In short: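 Human PBMCs (50,000/well) stimulated with IFN-γ 100 ng/ml and LPS 50 ng/ml were exposed to 11-point 3-fold compound dilutions for 2 days at 37 °C. Supernatant kynurenine was quantified by RapidFire MS relative to an internal standard; parallel CellTiter-Glo ATP luminescence measured cytotoxicity, with four-parameter curve fitting.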

T1 sequence (P14902 whole entry): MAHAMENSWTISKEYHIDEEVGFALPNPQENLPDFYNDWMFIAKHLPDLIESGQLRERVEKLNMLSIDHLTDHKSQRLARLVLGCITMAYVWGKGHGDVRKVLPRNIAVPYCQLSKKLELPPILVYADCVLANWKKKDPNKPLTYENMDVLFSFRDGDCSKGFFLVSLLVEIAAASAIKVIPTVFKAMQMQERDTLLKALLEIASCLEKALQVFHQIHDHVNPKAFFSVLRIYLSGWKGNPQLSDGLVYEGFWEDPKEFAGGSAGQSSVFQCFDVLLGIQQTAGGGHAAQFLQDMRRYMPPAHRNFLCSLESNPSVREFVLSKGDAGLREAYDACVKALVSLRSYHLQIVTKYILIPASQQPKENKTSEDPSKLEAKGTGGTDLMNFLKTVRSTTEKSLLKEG

| IC50 [nM] | SMILES |
| --- | --- |
| 501 | CC(C)(C)OC(=O)N1CCC(CC(NC(=O)c2ccc(Cl)s2)c2n[nH]c(=O)o2)CC1 (stereo not drawn) [Example 224, tert-butyl 4-(2-(5-chlorothiophene-2-carboxamido)-2-(5-oxo-4,5-dihydro-1,3,4-oxadiazol-2-yl)ethyl)piperidine-1-carboxylate] |
| 501 | CC(C)CNCC(CC1CCN(C(=O)OC(C)(C)C)CC1)NC(=O)c1ccc(F)cc1 (stereo not drawn) [Example 225, tert-butyl 4-(2-(4-fluorobenzamido)-3-(isobutylamino)propyl)piperidine-1-carboxylate] |
| 631 | CC(C)(C)OC(=O)N1CCC(CC(NC(=O)c2ccc(F)cc2)c2ccccn2)CC1 (stereo not drawn) [Example 226, tert-butyl 4-(2-(4-fluorobenzamido)-2-(pyridin-2-yl)ethyl)piperidine-1-carboxylate] |
| 631 | CC(C)Cc1ccc(C(=O)NC(CC2CCN(C(=O)OC(C)(C)C)CC2)c2ccccc2)s1 (stereo not drawn) [Example 227, tert-butyl 4-(2-(5-isobutylthiophene-2-carboxamido)-2-phenylethyl)piperidine-1-carboxylate] |
| 631 | CC(C)(C)OC(=O)N1CCC(CC(NC(=O)c2ccco2)c2ccccc2)CC1 (stereo not drawn) [Example 228, tert-butyl 4-(2-(furan-2-carboxamido)-2-phenylethyl)piperidine-1-carboxylate] |
| 631 | CC(C)(C)OC(=O)N1CCC(C[C@H](Nc2ccnc(Cl)n2)C2CC2)CC1 [Example 229, (S)-tert-butyl 4-(2-((2-chloropyrimidin-4-yl)amino)-2-cyclopropylethyl)piperidine-1-carboxylate] |
| 631 | O=C(NC(CC1CCN(C(=O)N2CCCCC2)CC1)c1ccccc1)c1ccc(Cl)cc1 (stereo not drawn) [Example 230, 4-chloro-N-(1-phenyl-2-(1-(piperidine-1-carbonyl)piperidin-4-yl)ethyl)benzamide] |
| 631 | CCNCC[C@H](CC1CCN(C(=O)OC(C)(C)C)CC1)NC(=O)c1ccc(Cl)s1 [Example 231, (S)-tert-butyl 4-(2-(5-chlorothiophene-2-carboxamido)-4-(ethylamino)butyl)piperidine-1-carboxylate] |
| 794 | CC(C)(C)OC(=O)N1CCC(CC(NC(=O)C2CCCC2)c2ccccc2)CC1 (stereo not drawn) [Example 232, tert-butyl 4-(2-(cyclopentanecarboxamido)-2-phenylethyl)piperidine-1-carboxylate] |
| 794 | CC1CCC(C(=O)NC(CC2CCN(C(=O)OC(C)(C)C)CC2)c2ccccc2)CC1 (stereo not drawn) [Example 233, tert-butyl 4-(2-(4-methylcyclohexanecarboxamido)-2-phenylethyl)piperidine-1-carboxylate] |
| 794 | CC(C)(C)OC(=O)N1CCC(C[C@@H](NC(=O)c2ccc(Cl)cc2)c2ccccc2)CC1 [Example 234, (R)-tert-butyl 4-(2-(4-chlorobenzamido)-2-phenylethyl)piperidine-1-carboxylate] |
| 794 | COCCNCC(CC1CCN(C(=O)OC(C)(C)C)CC1)NC(=O)c1ccc(F)cc1 (stereo not drawn) [Example 235, tert-butyl 4-(2-(4-fluorobenzamido)-3-((2-methoxyethyl)amino)propyl)piperidine-1-carboxylate] |
